According to PubChem BioAssay AID1745844 (Carcinogenic Potency Database (CPDB), 2022):
Activity calls are given as the source filed them. No rule for the calls is given here.

Test system: rodent lifetime carcinogenesis bioassay, tumor incidence TD50
Experiment: carcinogenic potency in animals, long-term in vivo studies, CPDB compilation (AID 1745844)

CC1(C)C(=O)Nc2ccc(C3=NNC(=O)CC3)cc21
TD50 (rat, strain Fischer 344, females, in feed, site: adrenal medulla, lesion: pheochromocytoma, benign, dosed 104 weeks, study length 104 weeks): 5.05 mg/kg/day
TD50 (rat, strain Fischer 344, females, in feed, site: adrenal medulla, lesion: several types, types named in the paper, dosed 104 weeks, study length 104 weeks): 4.82 mg/kg/day
TD50 (rat, strain Fischer 344, males, in feed, site: adrenal medulla, lesion: pheochromocytoma, benign, dosed 95 weeks, study length 95 weeks): 1.38 mg/kg/day
TD50 (rat, strain Fischer 344, males, in feed, site: adrenal medulla, lesion: pheochromocytoma, malignant, dosed 95 weeks, study length 95 weeks): 23.8 mg/kg/day
TD50 (rat, strain Fischer 344, males, in feed, site: adrenal medulla, lesion: several types, types named in the paper, dosed 95 weeks, study length 95 weeks): 1.27 mg/kg/day

C=CCOCC1CO1 (stereo not given)
TD50 (mouse, strain B6C3F1, females, inhaled, site: Harderian gland, lesion: adenoma, dosed 102 weeks, study length 105 weeks): 121 mg/kg/day
TD50 (mouse, strain B6C3F1, females, inhaled, site: lung, lesion: alveolar/bronchiolar adenoma + alveolar/bronchiolar carcinoma, dosed 102 weeks, study length 105 weeks): 123 mg/kg/day
TD50 (mouse, strain B6C3F1, females, inhaled, site: nasal cavity, respiratory epithelium, lesion: adenoma, dosed 102 weeks, study length 105 weeks): 614 mg/kg/day
TD50 (mouse, strain B6C3F1, males, inhaled, site: lung, lesion: alveolar/bronchiolar adenoma + alveolar/bronchiolar carcinoma, dosed 102 weeks, study length 105 weeks): 727 mg/kg/day
TD50 (mouse, strain B6C3F1, males, inhaled, site: nasal cavity, respiratory epithelium, lesion: adenoma, dosed 102 weeks, study length 105 weeks): 182 mg/kg/day
TD50 (rat, strain Osborne-Mendel, females, inhaled, site: any site (literature study), lesion: several types, types named in the paper, dosed 103 weeks, study length 106 weeks): 25.9 mg/kg/day (inactive)
TD50 (rat, strain Osborne-Mendel, males, inhaled, site: any site (literature study), lesion: several types, types named in the paper, dosed 103 weeks, study length 106 weeks): 1.01 mg/kg/day
TD50 (rat, strain Osborne-Mendel, males, inhaled, site: nasal cavity, olfactory epithelium + nasal cavity, respiratory epithelium, lesion: adenocarcinoma + papillary adenoma + squamous-cell carcinoma, dosed 103 weeks, study length 106 weeks): 14.9 mg/kg/day

C/C(=C(\CCOC(=O)c1ccccc1)SC(=O)c1ccccc1)N(C=O)Cc1cnc(C)nc1N
TD50 (rat, strain Sprague-Dawley, females, in feed, site: any site (literature study), lesion: malignant tumor, dosed 105 weeks, study length 105 weeks): 14300 mg/kg/day (inactive)
carcinogen call (rat, strain Sprague-Dawley, females, in feed, site: any site (literature study), lesion: several types, types named in the paper, dosed 105 weeks, study length 105 weeks): negative (inactive)
carcinogen call (rat, strain Sprague-Dawley, females, in feed, site: liver, lesion: hemangiosarcoma anaplastic, dosed 105 weeks, study length 105 weeks): negative (inactive)
TD50 (rat, strain Sprague-Dawley, males, in feed, site: any site (literature study), lesion: malignant tumor, dosed 105 weeks, study length 105 weeks): 2340 mg/kg/day (inactive)
carcinogen call (rat, strain Sprague-Dawley, males, in feed, site: any site (literature study), lesion: several types, types named in the paper, dosed 105 weeks, study length 105 weeks): negative (inactive)
TD50 (rat, strain Sprague-Dawley, males, in feed, site: liver, lesion: liver-cell tumor, benign, dosed 105 weeks, study length 105 weeks): 6980 mg/kg/day (inactive)
TD50 (rat, strain Sprague-Dawley, males, in feed, site: liver, lesion: liver-cell tumor, malignant, dosed 105 weeks, study length 105 weeks): 6770 mg/kg/day (inactive)

CCCN(N)C=O
TD50 (mouse, strain Swiss albino, females, in drinking water, site: gall bladder, lesion: adenoma, dosed 75 weeks, study length 79 weeks): 497 mg/kg/day
TD50 (mouse, strain Swiss albino, females, in drinking water, site: gall bladder, lesion: several types, types named in the paper, dosed 75 weeks, study length 79 weeks): 444 mg/kg/day
TD50 (mouse, strain Swiss albino, females, in drinking water, site: liver, lesion: several types, types named in the paper, dosed 75 weeks, study length 79 weeks): 215 mg/kg/day
TD50 (mouse, strain Swiss albino, females, in drinking water, site: lung, lesion: several types, types named in the paper, dosed 75 weeks, study length 79 weeks): 8.74 mg/kg/day
TD50 (mouse, strain Swiss albino, males, in drinking water, site: lung, lesion: several types, types named in the paper, dosed 51 weeks, study length 61 weeks): 8.84 mg/kg/day
TD50 (mouse, strain Swiss albino, males, in drinking water, site: preputial gland, lesion: several types, types named in the paper, dosed 51 weeks, study length 61 weeks): 60.4 mg/kg/day
TD50 (mouse, strain Swiss albino, males, in drinking water, site: preputial gland, lesion: squamous-cell carcinoma, dosed 51 weeks, study length 61 weeks): 75.7 mg/kg/day

C=C1C[C@@]23CC[C@H]4[C@@](C)(CCC[C@@]4(C)C(=O)O[C@@H]4O[C@H](CO)[C@@H](O)[C@H](O)[C@H]4O)[C@@H]2CC[C@]1(O[C@@H]1O[C@H](CO)[C@@H](O)[C@H](O)[C@H]1O[C@@H]1O[C@H](CO)[C@@H](O)[C@H](O)[C@H]1O)C3
TD50 (rat, strain F344/DuCrj, females, in feed, site: any site (literature study), lesion: several types, types named in the paper, dosed 104 weeks, study length 108 weeks): 34400 mg/kg/day (inactive)
carcinogen call (rat, strain F344/DuCrj, females, in feed, site: liver, lesion: one or several types, types not named, dosed 104 weeks, study length 108 weeks): negative (inactive)
carcinogen call (rat, strain F344/DuCrj, males, in feed, site: any site (literature study), lesion: several types, types named in the paper, dosed 104 weeks, study length 108 weeks): negative (inactive)
carcinogen call (rat, strain F344/DuCrj, males, in feed, site: liver, lesion: hepatocellular adenoma, dosed 104 weeks, study length 108 weeks): negative (inactive)
TD50 (rat, strain F344/DuCrj, males, in feed, site: liver, lesion: hepatocellular carcinoma, dosed 104 weeks, study length 108 weeks): 101000 mg/kg/day (inactive)

CS(=O)(=O)c1ccc([C@@H](O)[C@@H](CO)NC(=O)C(Cl)Cl)cc1
TD50 (rat, strain F344/DuCrj, females, in drinking water, site: any site (literature study), lesion: one or several types, types not named, dosed 104 weeks, study length 108 weeks): 43.2 mg/kg/day (inactive)
carcinogen call (rat, strain F344/DuCrj, females, in drinking water, site: liver, lesion: one or several types, types not named, dosed 104 weeks, study length 108 weeks): negative (inactive)
carcinogen call (rat, strain F344/DuCrj, males, in drinking water, site: any site (literature study), lesion: one or several types, types not named, dosed 104 weeks, study length 108 weeks): negative (inactive)
TD50 (rat, strain F344/DuCrj, males, in drinking water, site: liver, lesion: hepatocellular adenoma, dosed 104 weeks, study length 108 weeks): 683 mg/kg/day (inactive)

CC(=O)O[C@]1(C(C)=O)CC[C@H]2[C@@H]3C=C(Cl)C4=CC(=O)CC[C@]4(C)[C@H]3CC[C@@]21C
TD50 (mouse, strain C3H (MTV+), females, in feed, site: mammary tissue, wider than the gland, lesion: one or several types, types not named, dosed 104 weeks, study length 104 weeks): 3.77 mg/kg/day

CCN(CC)C(=S)S[Se](SC(=S)N(CC)CC)(SC(=S)N(CC)CC)SC(=S)N(CC)CC
TD50 (mouse, strain B6AKF1, females, oral dosing, site: any site (literature study), lesion: several types, types named in the paper, dosed 81 weeks, study length 81 weeks): 10.5 mg/kg/day
TD50 (mouse, strain B6AKF1, males, oral dosing, site: any site (literature study), lesion: several types, types named in the paper, dosed 81 weeks, study length 81 weeks): 8.45 mg/kg/day
TD50 (mouse, strain B6AKF1, males, oral dosing, site: liver, lesion: hepatoma, dosed 81 weeks, study length 81 weeks): 10.2 mg/kg/day
TD50 (mouse, strain B6AKF1, males, oral dosing, site: lung, lesion: adenoma, dosed 81 weeks, study length 81 weeks): 18.4 mg/kg/day
TD50 (mouse, strain B6C3F1, females, oral dosing, site: any site (literature study), lesion: several types, types named in the paper, dosed 81 weeks, study length 81 weeks): 3.46 mg/kg/day
TD50 (mouse, strain B6C3F1, females, oral dosing, site: liver, lesion: hepatoma, dosed 81 weeks, study length 81 weeks): 7.76 mg/kg/day
TD50 (mouse, strain B6C3F1, males, oral dosing, site: any site (literature study), lesion: several types, types named in the paper, dosed 81 weeks, study length 81 weeks): 0.638 mg/kg/day
TD50 (mouse, strain B6C3F1, males, oral dosing, site: liver, lesion: hepatoma, dosed 81 weeks, study length 81 weeks): 1.49 mg/kg/day
TD50 (mouse, strain B6C3F1, males, oral dosing, site: liver, lesion: several types, types named in the paper, dosed 81 weeks, study length 81 weeks): 1.28 mg/kg/day

C#C[C@]1(O)CC[C@H]2[C@@H]3CCC4=C(CCC(=O)C4)[C@H]3CC[C@@]21C
TD50 (mouse, strain (C3H x RIII)F1 (MTV+), females, in feed, site: mammary tissue, wider than the gland, lesion: one or several types, types not named, dosed 104 weeks, study length 104 weeks): 2.13 mg/kg/day
TD50 (mouse, strain CFLP, females, in feed, site: liver, lesion: hepatocellular tumor, dosed 78 weeks, study length 78 weeks): 49.1 mg/kg/day (inactive)
carcinogen call (mouse, strain CFLP, males, in feed, site: liver, lesion: hepatocellular tumor, dosed 78 weeks, study length 78 weeks): negative (inactive)
carcinogen call (mouse, strain Swiss Webster, females, by gavage, site: liver, lesion: hepatocellular tumor, dosed 65 weeks, study length 80 weeks): negative (inactive)

Nc1ccc(N)c(Cl)c1
TD50 (mouse, strain B6C3F1, females, in feed, site: any site (literature study), lesion: several types, types named in the paper, dosed 96 weeks, study length 104 weeks): 1430 mg/kg/day (inactive)
TD50 (mouse, strain B6C3F1, females, in feed, site: liver, lesion: hepatocellular adenoma + hepatocellular carcinoma + neoplastic nodule, dosed 96 weeks, study length 104 weeks): 1590 mg/kg/day
TD50 (mouse, strain B6C3F1, females, in feed, site: lung, lesion: alveolar/bronchiolar adenoma + alveolar/bronchiolar carcinoma, dosed 96 weeks, study length 104 weeks): 3330 mg/kg/day
TD50 (mouse, strain B6C3F1, males, in feed, site: any site (literature study), lesion: several types, types named in the paper, dosed 95 weeks, study length 104 weeks): 4380 mg/kg/day (inactive)
TD50 (mouse, strain B6C3F1, males, in feed, site: liver, lesion: hepatocellular adenoma + hepatocellular carcinoma + neoplastic nodule, dosed 95 weeks, study length 104 weeks): 1310 mg/kg/day
carcinogen call (rat, strain Fischer 344, females, in feed, site: any site (literature study), lesion: several types, types named in the paper, dosed 105 weeks, study length 105 weeks): negative (inactive)
TD50 (rat, strain Fischer 344, females, in feed, site: liver, lesion: hepatocellular adenoma + hepatocellular carcinoma + neoplastic nodule, dosed 105 weeks, study length 105 weeks): 3600 mg/kg/day
TD50 (rat, strain Fischer 344, males, in feed, site: any site (literature study), lesion: several types, types named in the paper, dosed 105 weeks, study length 105 weeks): 244 mg/kg/day (inactive)
TD50 (rat, strain Fischer 344, males, in feed, site: liver, lesion: hepatocellular adenoma + hepatocellular carcinoma + neoplastic nodule, dosed 105 weeks, study length 105 weeks): 665 mg/kg/day

C[C@@H]1C[C@]2(O[C@@H]2C)C(=O)O[C@@H]2CCN(C)C/C=C(/COC(=O)[C@]1(C)O)C2=O
TD50 (rat, strain ACI, females, in drinking water, site: liver, lesion: hemangioendothelial sarcoma, dosed 68 weeks, study length 68 weeks): 1.52 mg/kg/day
TD50 (rat, strain ACI, females, in drinking water, site: liver, lesion: liver-cell adenoma, dosed 68 weeks, study length 68 weeks): 4.13 mg/kg/day
TD50 (rat, strain ACI, females, in drinking water, site: liver, lesion: several types, types named in the paper, dosed 68 weeks, study length 68 weeks): 1.52 mg/kg/day
TD50 (rat, strain ACI, males, in drinking water, site: liver, lesion: hemangioendothelial sarcoma, dosed 58 weeks, study length 58 weeks): 4.78 mg/kg/day
TD50 (rat, strain ACI, males, in drinking water, site: liver, lesion: liver-cell adenoma, dosed 58 weeks, study length 58 weeks): 1.16 mg/kg/day
TD50 (rat, strain ACI, males, in drinking water, site: liver, lesion: several types, types named in the paper, dosed 58 weeks, study length 58 weeks): 0.662 mg/kg/day
